According to patent US7977358B2, “Pyrazol derivatives” (Hoffmann-La Roche Inc., priority 2007, dated 2011):

What follows are compounds tested against T1, human chemokine receptor 2 isoform B (CCR2B) (Homo sapiens, UniProt P41597) (assay: Calcium mobilization assay). Details: CHOK1-CCR2B-A5 cells, 20 nM MCP-1, FLIPR.
T1 construct: host or cells: CHOK1-CCR2B-A5 (CHO-K1) cells
T1 sequence (P41597 1-360 isoform P41597-2): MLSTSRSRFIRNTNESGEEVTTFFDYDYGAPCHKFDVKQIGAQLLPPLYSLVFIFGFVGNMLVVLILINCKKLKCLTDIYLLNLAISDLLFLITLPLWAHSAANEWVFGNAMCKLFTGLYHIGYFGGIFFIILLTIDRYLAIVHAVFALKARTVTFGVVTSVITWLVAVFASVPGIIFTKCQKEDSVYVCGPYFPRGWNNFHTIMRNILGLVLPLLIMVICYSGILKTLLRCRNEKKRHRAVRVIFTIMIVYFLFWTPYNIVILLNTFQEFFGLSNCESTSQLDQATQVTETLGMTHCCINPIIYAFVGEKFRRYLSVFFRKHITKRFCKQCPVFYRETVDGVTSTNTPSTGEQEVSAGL
Format: cell-based
Experimental: Calcium Mobilization Assay
CHOK1-CCR2B-A5 cells (from Euroscreen) stably overexpressing the human chemokine receptor 2 isoform B were cultured in Nutrient Hams F12 medium supplemented with 5% FBS, 100 U/ml penicillin, 100 μg/ml streptomycin, 400 μg/ml G418 and 5 μg/ml puromycin. For the assay cells were grown overnight in 384-well black clear flat bottom polystyrene plates (Costar) at 37° C. at 5% CO2. After washing with DMEM, 20 mM Hepes, 2.5 mM probenecid, 0.1% BSA (DMEM assay buffer) cells were loaded with 4 μM Fluo-4 in the same DMEM assay buffer for 2 hours at 30° C. Excess dye was removed and cells were washed with DMEM assay buffer. 384-well compound plates were prepared with DMEM assay buffer/0.5% DMSO with or without various concentrations of test compounds. Usually compounds were tested for agonist and antagonist activity.
Test compounds were added to the assay plate and agonist activity was monitored as fluorescence for 80 seconds with a FLIPR (488 nm excitation; 510-570 nm emission; Molecular Devices). After 20-30 min. of incubation at 30° C., 20 nM MCP-1 (R&D; Roche) was added and fluorescence was monitored again for 80 seconds. Increases in intracellular calcium are reported as maximum fluorescence after agonist exposure minus basal fluorescence before exposure. Antagonist activity is indicated as inhibitor concentration required for 50% inhibition of specific calcium increases.

In order of rising IC50:
1. Cc1c(C(=O)N2CCC(N3CCC[C@H]3CO)CC2)c(-c2ccncc2)nn1-c1cccc(OC(F)(F)F)c1 [Example 161, [4-((S)-2-Hydroxymethyl-pyrrolidin-1-yl)-piperidin-1-yl]-[5-methyl-3-pyridin-4-yl-1-(3-trifluoromethoxy-phenyl)-1H-pyrazol-4-yl]-methanone]  97.2 nM
2. CCN(CC)C1CCN(C(=O)c2c(C)nn(-c3cccc(/C=C/c4ccc(Cl)cc4)c3)c2C)C1 (centres unmarked) [Example 29, (1-{3-[(E)-2-(4-Chloro-phenyl)-vinyl]-phenyl}-3,5-dimethyl-1H-pyrazol-4-yl)-(3-diethylamino-pyrrolidin-1-yl)-methanone]  100 nM
3. O=C(c1c(C2CC2)nn(-c2cccc(OC(F)(F)F)c2)c1C1CC1)N1CCC(N2CCCC2)CC1 [Example 76, [3,5-Dicyclopropyl-1-(3-trifluoromethoxy-phenyl)-1H-pyrazol-4-yl]-(4-pyrrolidin-1-yl-piperidin-1-yl)-methanone]  122 nM
4. Cc1nn(-c2cccc(OC(F)(F)F)c2)c(C2CC2)c1C(=O)N1CCC(N2CCC3(C2)NC(=O)NC3=O)CC1 (centres unmarked) [Example 139, 7-{1-[5-Cyclopropyl-3-methyl-1-(3-trifluoromethoxy-phenyl)-1H-pyrazole-4-carbonyl]-piperidin-4-yl}-1,3,7-triaza-spiro[4.4]nonane-2,4-dione]  141 nM
5. Cc1nn(-c2cccc(OC(F)(F)F)c2)c(C2CC2)c1C(=O)N1CCC(N2C[C@@H](O)CC2C)CC1 (stereo in doubt) [Example 138, [5-Cyclopropyl-3-methyl-1-(3-trifluoromethoxy-phenyl)-1H-pyrazol-4-yl]-[4-((2R,4S)-4-hydroxy-2-methyl-pyrrolidin-1-yl)-piperidin-1-yl]-methanone]  154 nM
6. CC(=O)N[C@@H]1CCN(C2CCN(C(=O)c3c(C)nn(-c4cccc(OC(F)(F)F)c4)c3C)CC2)C1 [Example 119, N-((R)-1-{1-[3,5-Dimethyl-1-(3-trifluoromethoxy-phenyl)-1H-pyrazole-4-carbonyl]-piperidin-4-yl}-pyrrolidin-3-yl)-acetamide]  306 nM
7. Cc1nn(-c2cccc(C(F)(F)F)c2)c(C)c1C(=O)N1CCC(N2CCOCC2)CC1 [Example 83, [3,5-Dimethyl-1-(3-trifluoromethyl-phenyl)-1H-pyrazol-4-yl]-(4-morpholin-4-yl-piperidin-1-yl)-methanone]  658 nM
8. Cc1nn(-c2cccc(OC(F)(F)F)c2)c(C)c1C(=O)N1CCC(N2CCCC2C)C1 (centres unmarked) [Example 122, [3,5-Dimethyl-1-(3-trifluoromethoxy-phenyl)-1H-pyrazol-4-yl]-(2-methyl-[1,3′]bipyrrolidinyl-1′-yl)-methanone]  730 nM
